Data reported in US6720346B2, “Thiazole benzamide derivatives and pharmaceutical compositions for inhibiting cell proliferation” (Agouron Pharmaceuticals, Inc., priority 2001, dated 2004).
pIC50, pKi: −log10 of the molar value. Structures can show the parent of a compound that is named as a salt.

Assays:
HCT-116 cell line = test: Inhibition of cell growth, MTT tetrazolium salt assay; assay type: cell-based; details: for pIC50: Homo sapiens, HCT-116, 120 h, MTT, three to five days
How it was run: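 Growth inhibition was read as MTT-formazan absorbance at 540 nm, after 4 h with 0.2 mg/mL MTT. Before that, HCT-116 cells had been exposed 3–5 days at 37 °C to compounds in 0.5% (v/v) DMSO, added 4 h after plating. 50% and 90% inhibitory concentrations were taken from semi-log concentration–inhibition plots versus vehicle controls.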

CDK2/cyclin A = target: T1, CDK2/cyclin A (Homo sapiens, UniProt P24941); test: Inhibition of CDK2/cyclin A retinoblastoma kinase activity (Ki; % inhibition); assay type: biochemical; details: for pKi: apparent Ki, CDK2/cyclin A, Rb substrate
T1 construct: made in house; host or cells: CDK2: insect cells (baculovirus); cyclin A: E. coli
How it was run: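 Apparent Ki values came from fitting concentration-dependent activity data to competitive (or competitive tight-binding) models, and % inhibition from single 30 nM screens of library compounds. Activity was measured as ³²P/³³P incorporation from 25 μM ATP into an Rb substrate by 10 or 19 nM CDK2/delta cyclin A at 30 °C over 60–75 min, pH 7.4.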

human CDK4/cyclin D3 = target: T2, human CDK4/cyclin D3 (Homo sapiens, UniProt P11802); test: Inhibition of CDK4/cyclin D retinoblastoma kinase activity (Ki; % inhibition); assay type: biochemical; details: for pKi: apparent Ki, CDK4/cyclin D3, Rb substrate
T2 construct: made in house; host or cells: insect cells co-infected with baculovirus vectors
T2 sequence (P11802 whole entry): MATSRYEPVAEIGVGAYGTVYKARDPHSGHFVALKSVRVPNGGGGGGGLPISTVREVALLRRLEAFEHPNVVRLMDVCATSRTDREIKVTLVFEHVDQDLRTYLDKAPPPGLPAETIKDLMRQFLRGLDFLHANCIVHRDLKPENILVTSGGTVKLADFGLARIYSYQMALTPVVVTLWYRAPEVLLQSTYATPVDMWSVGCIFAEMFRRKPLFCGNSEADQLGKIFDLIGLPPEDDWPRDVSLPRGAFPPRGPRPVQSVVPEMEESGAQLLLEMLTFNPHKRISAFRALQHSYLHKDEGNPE
T2 sequence (P30281 1-264 partner limits assumed): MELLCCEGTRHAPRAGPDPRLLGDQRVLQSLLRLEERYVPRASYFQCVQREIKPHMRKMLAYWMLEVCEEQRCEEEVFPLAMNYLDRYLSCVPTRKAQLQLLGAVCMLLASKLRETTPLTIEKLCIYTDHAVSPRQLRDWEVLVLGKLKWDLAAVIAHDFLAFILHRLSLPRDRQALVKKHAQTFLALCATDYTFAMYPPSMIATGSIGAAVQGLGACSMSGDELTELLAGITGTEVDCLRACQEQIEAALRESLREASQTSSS
How it was run: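 Radiometric filter-binding read-out: Rb residues 386-928 phosphorylated by 5 nM CDK4/cyclin D3(1-264) from baculovirus-infected insect cells, 25 μM ATP, HEPES pH 7.4, 30 °C. Run 20 min, or 60 min for tight-binding inhibitors. Screening at 30 nM theoretical compound; apparent Ki by competitive-inhibition fitting.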

[1] = HCT-116 cells, 0.25 μM compound

Structure (SMILES) | HCT-116 % Inhibition at 0.1 μM (HCT-116 cell line; HCT-116, at 0.1 μM) [%] | HCT-116 % Inhibition at 0.25 μM (HCT-116 cell line; HCT-116, at 0.25 μM) [%] | CDK2 % Inhibition at 0.03 μM (CDK2/cyclin A; at 0.03 μM) [%] | CDK4 % Inhibition at 0.03 μM (human CDK4/cyclin D3; at 0.03 μM) [%] | also measured
CC1CCCCN1CCCNC(=O)c1ccc(Nc2nc(N)c(C(=O)c3c(F)cccc3F)s2)cc1 (stereo not drawn) [Example G303] |  |  |  |  | HCT-116 % Inhibition at 0.1 μM (HCT-116 cell line; HCT-116 cells, 0.1 μM compound): 18%; HCT-116 % Inhibition at 0.25 μM (HCT-116 cell line; [1]): 72%; CDK2 % Inhibition at 0.03 μM (CDK2/cyclin A; 0.03 μM compound): 2%; CDK4 % Inhibition at 0.03 μM (human CDK4/cyclin D3; 0.03 μM compound): 45%
COc1ccc(CCNC(=O)c2ccc(Nc3nc(N)c(C(=O)c4c(F)cccc4F)s3)cc2)cc1OC [Example G241] |  |  |  |  | HCT-116 % Inhibition at 0.1 μM (HCT-116 cell line; HCT-116 cells, 0.1 μM compound): 28%; HCT-116 % Inhibition at 0.25 μM (HCT-116 cell line; [1]): 57%; CDK2 % Inhibition at 0.03 μM (CDK2/cyclin A; 0.03 μM compound): 22%; CDK4 % Inhibition at 0.03 μM (human CDK4/cyclin D3; 0.03 μM compound): 29%
Cc1nccc(-c2cccc(NC(=O)c3ccc(Nc4nc(N)c(C(=O)c5c(F)cccc5F)s4)cc3)c2)n1 [Example G87] | 54 | 78 | −40 | 13 | 
Nc1nc(Nc2ccc(C(=O)NCCOc3ccccc3)cc2)sc1C(=O)c1c(F)cccc1F [Example G113] | 26 | 80 | 51 | 43 | 
CCCCN(Cc1ccccc1)C(=O)c1ccc(Nc2nc(N)c(C(=O)c3c(F)cccc3F)s2)cc1 [Example G306] |  |  |  |  | HCT-116 % Inhibition at 0.1 μM (HCT-116 cell line; HCT-116 cells, 0.1 μM compound): 9%; HCT-116 % Inhibition at 0.25 μM (HCT-116 cell line; [1]): 44%; CDK2 % Inhibition at 0.03 μM (CDK2/cyclin A; 0.03 μM compound): −17%; CDK4 % Inhibition at 0.03 μM (human CDK4/cyclin D3; 0.03 μM compound): 0%
CCN(CC)CCCNC(=O)c1ccc(Nc2nc(N)c(C(=O)c3c(F)cccc3F)s2)cc1 [Example G127] | 0 | 61 | 10 | 29 | 
CN(CCc1ccncc1)C(=O)c1ccc(Nc2nc(N)c(C(=O)c3c(F)cccc3F)s2)cc1 [Example G58] |  | 53 | 19 | 17 | 
Nc1nc(Nc2ccc(C(=O)NCc3ccccn3)cc2)sc1C(=O)c1c(F)cccc1F [Example G180] | 25 | 68 | 22 | 29 | 
CC(C)N(Cc1ccccc1)C(=O)c1ccc(Nc2nc(N)c(C(=O)c3c(F)cccc3F)s2)cc1 [Example G70] |  | 53 | −4 | 10 | 
Nc1nc(Nc2ccc(C(=O)Nc3cccc4cnccc34)cc2)sc1C(=O)c1c(F)cccc1F [Example G83] |  | 64 | 16 | 7 | 
CN1CCC[C@H]1CNC(=O)c1ccc(Nc2nc(N)c(C(=O)c3ccccc3S(C)(=O)=O)s2)cc1 [Example A73, 4-{4-Amino-5-(2-methanesulfonyl-benzoyl)-thiazol-2-ylamino}-N-(1-methyl-pyrrolidin-2S-ylmethyl)-benzamide Trifluoroacetic Acid Salt] |  |  |  |  | pIC50 (HCT-116 cell line): < 5.30; pKi (CDK2/cyclin A): 5.92; pKi (human CDK4/cyclin D3): 4.44
Nc1nc(Nc2ccc(C(=O)NCCN3CCOCC3)cc2)sc1C(=O)c1c(F)cccc1F [Example G124] | 0 | 64 | 10 | 17 | 
COc1ccc(C(F)(F)F)cc1NC(=O)c1ccc(Nc2nc(N)c(C(=O)c3c(F)cccc3F)s2)cc1 [Example G22] |  | 50 | 2 | −3 | 
Nc1nc(Nc2ccc(C(=O)Nc3ccon3)cc2)sc1C(=O)c1c(F)cccc1F [Example G213] |  |  |  |  | HCT-116 % Inhibition at 0.1 μM (HCT-116 cell line; HCT-116 cells, 0.1 μM compound): 16%; HCT-116 % Inhibition at 0.25 μM (HCT-116 cell line; [1]): 49%; CDK2 % Inhibition at 0.03 μM (CDK2/cyclin A; 0.03 μM compound): −1%; CDK4 % Inhibition at 0.03 μM (human CDK4/cyclin D3; 0.03 μM compound): 9%
C[C@@H](CN(C)C)NC(=O)c1ccc(Nc2nc(N)c(C(=O)c3c(F)cccc3F)s2)cc1 [Example A41] |  |  |  |  | pIC50 (HCT-116 cell line): 6.74; pKi (CDK2/cyclin A): 6.64; pKi (human CDK4/cyclin D3): 7.46
